The target of this test is T1, Polyphenol oxidase 1 (White button mushroom, UniProt Q00024).
T1 sequence (Q00024 whole entry): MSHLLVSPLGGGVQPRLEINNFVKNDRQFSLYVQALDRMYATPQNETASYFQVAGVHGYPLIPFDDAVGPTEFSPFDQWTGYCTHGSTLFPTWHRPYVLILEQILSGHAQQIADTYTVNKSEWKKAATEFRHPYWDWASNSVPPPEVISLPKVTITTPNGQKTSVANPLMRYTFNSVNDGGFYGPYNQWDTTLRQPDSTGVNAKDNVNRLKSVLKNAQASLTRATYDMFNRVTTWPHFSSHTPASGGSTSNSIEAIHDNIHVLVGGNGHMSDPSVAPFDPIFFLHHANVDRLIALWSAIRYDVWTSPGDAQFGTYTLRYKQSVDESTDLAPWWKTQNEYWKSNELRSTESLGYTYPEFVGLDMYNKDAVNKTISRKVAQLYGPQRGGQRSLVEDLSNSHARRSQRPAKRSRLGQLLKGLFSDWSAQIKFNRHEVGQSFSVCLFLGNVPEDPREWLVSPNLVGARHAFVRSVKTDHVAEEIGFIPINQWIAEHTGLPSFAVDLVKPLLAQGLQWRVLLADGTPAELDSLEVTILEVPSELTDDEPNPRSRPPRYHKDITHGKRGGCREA
As to the kind of experiment: Tyrosinase Inhibition Assay. The following applies: pH 6.8; 37 °C. The protocol: Briefly, mushroom tyrosinase (1250 units/mL) and 2 mM L-tyrosine (0.07 mL) were added to a solution of phosphate buffer (0.1 M, pH 6.8, 0.09 mL) containing the test sample. The test mixture (0.2 mL) was incubated for 10 min at 37°C and the absorption due to the formation of dopachrome was monitored at 475 nm. The same mixture except for the plant extract was used as a control. Arbutin (hydroquinone-O-β-glucopyranoside) was used as a positive control. Each treatment was replicated three times.

This note sets out measurements from BindingDB's records for doi:10.3109/14756366.2012.670806 (Jeju National University, 2013).

In the case of `OC[C@H]1O[C@@H](Oc2ccc(O)cc2)[C@H](O)[C@@H](O)[C@@H]1O` [4-hydroxyphenyl beta-D-glucopyranoside], half-maximal inhibition (IC50) required 320 µM.
Next, `CC1OC(Oc2c(-c3ccc(O)cc3)oc3cc(O)cc(O)c3c2=O)C(OC(=O)/C=C/c2ccc(O)cc2)C(O)C1O` (stereo not drawn) [Neolitsea aciculata extract, 6]: 80 µM; `CC1OC(Oc2c(-c3ccc(O)cc3)oc3cc(O)cc(O)c3c2=O)C(OC(=O)/C=C/c2ccc(O)cc2)C(OC(=O)/C=C/c2ccc(O)cc2)C1O` (stereo not drawn) [Neolitsea aciculata extract, 5]: 67 µM.
